# Test results published in patent publication US11434267B2, “Peptides having reduced toxicity that stimulate cholesterol efflux” (The Regents of the University of California, priority 2013, dated 2022).
# Non-standard residues stand in square brackets, D forms with d. No end group written: not given here. Cit = NC(=O)NCCC[C@H](N)C(=O)O
# Biological target: T1, ABCA1 (Mus musculus, UniProt P41233)
# T1 construct: treated (18 h) with a cAMP analog to induce ABCA1 protein expression; endogenous in cells; host or cells: J774 macrophages
# T1 sequence (P41233 whole entry): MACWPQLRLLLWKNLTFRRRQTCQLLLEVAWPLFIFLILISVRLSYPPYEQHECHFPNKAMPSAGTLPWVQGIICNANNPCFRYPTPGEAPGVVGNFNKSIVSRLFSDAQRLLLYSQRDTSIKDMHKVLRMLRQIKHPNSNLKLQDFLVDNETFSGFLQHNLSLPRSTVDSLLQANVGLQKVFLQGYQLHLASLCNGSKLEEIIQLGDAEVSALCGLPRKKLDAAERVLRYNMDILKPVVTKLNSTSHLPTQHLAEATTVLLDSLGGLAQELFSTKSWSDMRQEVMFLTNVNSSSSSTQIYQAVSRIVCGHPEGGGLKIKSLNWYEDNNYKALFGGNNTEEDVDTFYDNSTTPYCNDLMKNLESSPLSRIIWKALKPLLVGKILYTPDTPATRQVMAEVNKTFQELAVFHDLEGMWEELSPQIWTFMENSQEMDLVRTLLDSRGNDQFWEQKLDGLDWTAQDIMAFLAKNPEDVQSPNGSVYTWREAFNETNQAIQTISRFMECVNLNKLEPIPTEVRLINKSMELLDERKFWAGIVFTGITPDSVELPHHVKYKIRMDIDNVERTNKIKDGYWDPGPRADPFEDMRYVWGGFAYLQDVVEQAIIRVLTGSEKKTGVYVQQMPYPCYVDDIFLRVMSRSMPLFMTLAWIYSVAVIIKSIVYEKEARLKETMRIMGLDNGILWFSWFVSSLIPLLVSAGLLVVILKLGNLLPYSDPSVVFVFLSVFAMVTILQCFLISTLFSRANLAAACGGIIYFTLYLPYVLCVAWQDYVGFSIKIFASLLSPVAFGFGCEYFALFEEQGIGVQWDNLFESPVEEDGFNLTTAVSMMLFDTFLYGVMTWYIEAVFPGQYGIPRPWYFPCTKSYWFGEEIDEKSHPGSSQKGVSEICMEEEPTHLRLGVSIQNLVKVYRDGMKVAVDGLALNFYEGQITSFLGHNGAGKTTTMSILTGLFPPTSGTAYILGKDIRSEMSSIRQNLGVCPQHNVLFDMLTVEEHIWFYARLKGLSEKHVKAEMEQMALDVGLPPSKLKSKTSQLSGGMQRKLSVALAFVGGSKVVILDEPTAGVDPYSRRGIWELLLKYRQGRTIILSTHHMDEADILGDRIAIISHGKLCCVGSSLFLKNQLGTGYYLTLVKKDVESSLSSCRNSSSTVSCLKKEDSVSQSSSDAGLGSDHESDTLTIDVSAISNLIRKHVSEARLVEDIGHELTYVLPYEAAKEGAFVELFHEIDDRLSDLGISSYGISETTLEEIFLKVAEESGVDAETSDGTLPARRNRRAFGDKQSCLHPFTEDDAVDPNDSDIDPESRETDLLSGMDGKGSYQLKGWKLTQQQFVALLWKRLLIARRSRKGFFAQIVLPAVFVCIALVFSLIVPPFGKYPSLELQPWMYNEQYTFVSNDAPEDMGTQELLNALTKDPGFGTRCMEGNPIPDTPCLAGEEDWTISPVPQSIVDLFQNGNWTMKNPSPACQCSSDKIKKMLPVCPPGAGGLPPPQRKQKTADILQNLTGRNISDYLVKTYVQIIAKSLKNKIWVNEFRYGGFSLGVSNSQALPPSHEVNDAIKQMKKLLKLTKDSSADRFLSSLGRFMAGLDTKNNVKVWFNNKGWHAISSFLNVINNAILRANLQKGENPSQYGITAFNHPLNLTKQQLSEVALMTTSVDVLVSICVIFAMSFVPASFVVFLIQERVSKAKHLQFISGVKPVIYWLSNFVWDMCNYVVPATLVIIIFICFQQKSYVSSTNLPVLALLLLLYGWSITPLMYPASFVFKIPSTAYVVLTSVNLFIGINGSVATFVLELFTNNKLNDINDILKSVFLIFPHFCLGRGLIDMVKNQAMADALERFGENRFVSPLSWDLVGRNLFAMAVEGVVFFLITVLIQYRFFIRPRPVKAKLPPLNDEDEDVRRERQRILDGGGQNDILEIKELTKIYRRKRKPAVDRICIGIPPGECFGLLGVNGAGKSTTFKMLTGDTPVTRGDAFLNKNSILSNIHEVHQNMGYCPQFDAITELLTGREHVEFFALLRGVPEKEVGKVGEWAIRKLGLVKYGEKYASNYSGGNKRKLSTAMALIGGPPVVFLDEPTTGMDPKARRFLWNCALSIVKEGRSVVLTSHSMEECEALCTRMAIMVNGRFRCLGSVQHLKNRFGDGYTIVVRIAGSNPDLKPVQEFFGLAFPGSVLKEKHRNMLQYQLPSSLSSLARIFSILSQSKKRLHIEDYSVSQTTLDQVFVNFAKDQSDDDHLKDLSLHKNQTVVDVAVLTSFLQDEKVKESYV
# Assay: ABCA1 protein stabilization in J774 macrophages (Western blot)
# Assay type: cell-based
# Conditions: J774 after cAMP, 6 h chase
# Experimental: In some embodiments, the stabilization of ABCA is measured by direct measurement of ABCA (e.g., ABCA protein, or nucleic acid) using a cell based assay. Cell based assays can be performed in any cells in which ABCA is expressed (e.g., J774 macrophages), including cells which have been transfected with ABCA (e.g. HeLa cells). Any cell type can be used. For example, J774 macrophages can be used to assess relative ABCA1 protein levels in the presence and absence of polypeptides of the invention. The cells are first contacted with a compound that will induce ABCA (e.g., cAMP or a cAMP analogue such as, 8-bromo-cAMP) to upregulate ABCA (e.g., ABCA1) expression, then exposed to […] polypeptides of the invention in the absence of the cAMP stimulus to evaluate whether ABCA1 protein was stabilized or degraded. Relative levels of ABCA1 protein can be assessed using any means known in the art including, e.g., immunoblot analysis of cell membranes (Oram et al., J. Biol. Chem., 278:52379-52385 (2003)) or hybridization of nucleic acid probes to ABCA mRNA.
# (FIG. 29). J774 macrophages were used for experiments. Panel A—Cells were labeled (48 h) with 3H cholesterol and treated with (right bars) and without (left bars) a cAMP analog to modulate ABCA1 expression. […]
row,Substance,ABCA1 protein level (stabilization)
1,"apoA-I: full-length native apolipoprotein A-I, lipid-free",maintained at high-levels

# Tested on: C57Bl/6 mice
# Assay: Glucose tolerance test in fasted C57Bl/6 mice after single IP peptide injection
# Assay type: in vivo, mouse
# Conditions: single IP 300 mg/kg, 2 g/kg glucose IP
# Experimental: Peptide may additionally be screened for the ability to lower glucose using methods illustrated in the EXAMPLES section, e.g., Example 31. For example, the ability to lower glucose can be evaluated using ing animal models, such as mice or rats. Mice, e.g., C57Bl/6 mice, fed a normal lab chow diet are injected IP with a peptide that is undergoing evaluation, e.g., at a does of 300 mg/kg, and the glucose levels in the blood are measured at a time period, e.g. 6 hours, following injection and compared to the levels of blood glucose in a control animal that received PBS. Alternatively, peptides may be screened for the ability to lower glucose as illustrated in Example 36. For example, 300 mg/kg peptide injected IP into to fasted animals and 3 h thereafter a glucose tolerance test is performed by injecting 2 g/kg glucose during which the glucose concentration is followed for 120 minutes. Peptides that have glucose lowering activity show statistically significant lowered glucose relative to controls. Typically, peptides lower glucose by at least 5%, often at least 10% or greater, relative to controls. Peptides may also be evaluated for glucose-lowering activity in animal models of obesity, e.g., DIO mice. Further, peptides may be evaluated for the ability to improve sensitivity to insulin, e.g., as described in Example 31 of the EXAMPLES section.
# This example illustrates that CS6253 and T6991-2 lower blood glucose concentrations upon glucose challenge in C57Bl/6 mice (FIG. 51). Fasted male C57Bl/6 mice on chow diet received a single intraperitonel (IP) injection of either vehicle alone or 300 mg/kg of lipid-free peptide, as described for safety studies in FIG. 5. Following treatment, a glucose tolerance test was performed via IP injection of 2 g/kg glucose. Blood was collected from the tail vein at the indicated times and blood glucose measured using a glucometer. Panels A and B— Blood glucose concentrations expressed as mass values over time following glucose challenge, with corresponding area under the curve, respectively. (Bar graph, panel B, bars from left to right are PBS, CS6253, T699102, 2, 4, 5, 6, and 9, respectively) Values are means±SD, n=4 mice per group.
row,Substance,blood glucose upon glucose challenge
1,T8212-2: CS6253 analog with combination of leucine and isoleucine residues (L→I) (EV[Cit]SKLEEWLAAI[Cit]ELAEELLARLKS) [Peptide T8212-2],poorly active in lowering blood glucose responses
2,T8212-4: CS6253 analog with combination of leucine and isoleucine residues (L→I) (EV[Cit]SKLEEWIAAL[Cit]ELAEEILARLKS) [Peptide T8212-4],poorly active in lowering blood glucose responses
3,T8212-5: CS6253 analog with combination of leucine and isoleucine residues (L→I) (EV[Cit]SKIEEWIAAL[Cit]ELAEEILARLKS) [Peptide T8212-5],poorly active in lowering blood glucose responses
4,T8212-6: CS6253 analog with combination of leucine and isoleucine residues (L→I) (EV[Cit]SKIEEWLAAI[Cit]EIAEELLARLKS) [Peptide T8212-6],poorly active in lowering blood glucose responses
5,T8212-9: CS6253 analog with combination of leucine and isoleucine residues (L→I) (EV[Cit]SKIEEWIAAI[Cit]EIAEEIIARLKS) [Peptide T8212-9],poorly active in lowering blood glucose responses
